Assay results from article PMC8070514, “Antibacterial and Antibiofilm Activities of Novel Antimicrobial Peptides against Multidrug-Resistant Enterotoxigenic Escherichia Coli” (International Journal of Molecular Sciences, 2021).
Ends that are not written are not given here.

Legend:
[1] = system: MDR ETEC strain (clinical isolate); assay: Resistance of the MDR ETEC strain to conventional antibiotics; type: cell-based, Escherichia coli; conditions: method not given
Description: (§1) The MDR ETEC strain used in this study was a clinical isolate kindly provided by our co-author, Dr. Hui-Wen Chang from Department of Veterinary Medicine and Graduate Institute of Molecular and Comparative Pathobiology, School of Veterinary Medicine, National Taiwan University. […] Glycerol stocks (20%, v/v) were maintained at −86 °C for long-term storage.

[2] = Hemolytic activity, minimal hemolysis concentration (MHC); type: cell-based; conditions: method not described
[3] = system: MDR ETEC (multidrug-resistant enterotoxigenic Escherichia coli); conditions: MDR ETEC clinical isolate; 96-well microtiter plates, 10^4 CFU/mL inoculum, 48 h at 37 °C, absorbance 600 nm; lowest concentration that completely inhibits visible growth
Description: as §1
Cultures were examined for growth after 48 h incubation at 37 °C, and the absorbance at 600 nm was measured.

[4] = system: intestinal porcine epithelial cell line-J2 (IPEC-J2); assay: Cell viability (MTT) assay, IPEC-J2; type: cell-based; conditions: IPEC-J2, 24 h exposure
Description: (§2) The IPEC-1 and IPEC-J2 cell lines were kindly provided by Dr. Je-Ruei Liu from Institute of Biotechnology and Department of Animal Science and Technology, National Taiwan University. The culture conditions and protocols were according to Koh et al. with slight modifications. Both IPEC-1 and IPEC-J2 cells were seeded on 9-cm cell culture dishes and were cultured and maintained in Dulbecco’s modified Eagle medium (DMEM)/nutrient mixture F-12 (GeneDireX, Taipei, Taiwan) supplemented with 10% fetal bovine serum (FBS; Hyclone, Cytiva, Washington DC, USA). The cultures were maintained in a humidified incubator in an atmosphere of 5% CO2 at 37 °C. After 4 to 5 days of culturing, both cell lines became confluent. Cell monolayers were washed with 3–5 mL Dulbecco’s phosphate buffered saline (DPBS, Amresco, Solon, OH, USA) and trypsinized with 1× trypsin-EDTA. The detached cells were pelleted at 200× g for 5 min, re-suspended in antibiotic-free medium, and used for subsequent adherence assays. […]
(§3) The viability of both IPEC-1 and IPEC-J2 cells after treated with AMP Q4-15a-1 was evaluated using 3-(4,5-dimethylthiazol-2-yl)-2,5-diphenyltetrazolium bromide (MTT, Amresco, Solon, OH, USA) assays performed in triplicate in three independent experiments. […] Absorbance at 570 nm of the maximum was detected by a multimode microplate reader SpectraMax M2 (Molecular Devices, San Jose, CA, USA). […]

[5] = system: intestinal porcine epithelial cell line-1 (IPEC-1); assay: Cell viability (MTT) assay, IPEC-1; type: cell-based; conditions: IPEC-1, 24 h exposure
Description: as §2, §3

[6] = system: Acinetobacter baumannii biofilms; conditions: 32 and 64 μg/mL; cited from earlier work
Text: Biofilm is a microbial community that adheres to the surface of various substances and encapsulates themselves in an autologous extracellular matrix. It is a critical issue to manage biofilms in clinical treatment. The matrix of the biofilm plays an important role in the mechanism of resistance to antibiotics, which constitutes a barrier to delay or prevent the interaction of antibiotics with microbial cells, depending on the extracellular polymeric substances and the charge of antimicrobial agents. The latter can be isolated or repelled, thereby reducing its effect on biofilms [[36],[3 ...

| Compound | Susceptibility of the MDR ETEC strain [1] | other results |
| --- | --- | --- |
| NC[C@H]1O[C@H](O[C@H]2[C@H](O)[C@@H](O[C@H]3O[C@H](CO)[C@@H](O)[C@H](N)[C@H]3O)[C@H](N)C[C@@H]2N)[C@H](O)[C@@H](O)[C@@H]1O [kanamycin] | resistant |  |
| penicillin | resistant |  |
| KKFATIAKKFINKLW-NH2 [Peptide Q4-15a-1] |  | MHC (minimal hemolysis concentration) [2]: 256 µg/mL; MIC [3]: 4 µg/mL; IC20 (cell viability, MTT) [4]: around 100 μg/mL; IC20 (cell viability, MTT) [5]: around 100 μg/mL |
| GANAAKKFATIAKKFINYLW [GW-Q4] |  | MHC (minimal hemolysis concentration) [2]: 128 µg/mL; MIC [3]: 32 µg/mL |
| NC[C@H]1O[C@H](O[C@H]2[C@H](O)[C@@H](O[C@H]3O[C@H](CO)[C@@H](O)[C@H](N)[C@H]3O)[C@H](N)C[C@@H]2N)[C@H](N)C[C@@H]1O [tobramycin] | resistant |  |
| KKFATIAKKFINYLW [Peptide Q4-15] |  | MHC (minimal hemolysis concentration) [2]: 128 µg/mL; MIC [3]: 8 µg/mL |
| CN(C)[C@@H]1C(O)=C(C(N)=O)C(=O)[C@@]2(O)C(O)=C3C(=O)c4c(O)cccc4[C@@](C)(O)[C@H]3C[C@@H]12 [tetracycline] | resistant |  |
| GANAAKKFATIAKKFINYLW-NH2 [GW-Q4a] |  | MHC (minimal hemolysis concentration) [2]: 32 µg/mL; MIC [3]: 8 µg/mL |
| CC1=C(C(=O)O)N2C(=O)[C@@H](NC(=O)[C@H](N)c3ccc(O)cc3)[C@H]2SC1 [cefadroxil] | resistant |  |
| CC(C)(O/N=C(\C(=O)N[C@@H]1C(=O)N2C(C(=O)[O-])=C(C[n+]3ccccc3)CS[C@H]12)c1csc(N)n1)C(=O)O [ceftazidime] | resistant |  |
| O=C1CN(/N=C/c2ccc([N+](=O)[O-])o2)C(=O)N1 [nitrofurantoin] | moderately susceptible |  |
| CC1(C)S[C@@H]2[C@H](NC(=O)[C@H](N)c3ccccc3)C(=O)N2[C@H]1C(=O)O [ampicillin] | resistant |  |
| CNC(C)C1CCC(N)C(OC2C(N)CC(N)C(OC3OCC(C)(O)C(NC)C3O)C2O)O1 (stereo not drawn) [gentamicin] | resistant |  |
| O=C(N[C@H](CO)[C@H](O)c1ccc([N+](=O)[O-])cc1)C(Cl)Cl [chloramphenicol] | resistant |  |
| CO/N=C(\C(=O)N[C@@H]1C(=O)N2C(C(=O)O)=C(COC(N)=O)CS[C@H]12)c1ccco1 [cefuroxime] | resistant |  |
| C[C@H]1c2cccc(O)c2C(=O)C2=C(O)[C@]3(O)C(=O)C(C(N)=O)=C(O)[C@@H](N(C)C)[C@@H]3[C@@H](O)[C@@H]21 [doxycycline] | resistant |  |

| Compound | Susceptibility of the MDR ETEC strain [1] | other results |
| --- | --- | --- |
| LL37 |  | Effect on two Acinetobacter baumannii biofilms [6]: inhibitory effect |
| KKFATIAKKFINWLW [Peptide Q4-15-2] |  | MHC (minimal hemolysis concentration) [2]: 32 µg/mL; MIC [3]: 4 µg/mL |
| KKFATIAKKFINWLW-NH2 [Peptide Q4-15a-2] |  | MHC (minimal hemolysis concentration) [2]: 16 µg/mL; MIC [3]: 2 µg/mL |
| polymyxin B | moderately susceptible |  |
| KKFATIAKKFINKLW [Peptide Q4-15-1] |  | MHC (minimal hemolysis concentration) [2]: 256 µg/mL; MIC [3]: 8 µg/mL |
| CCn1cc(C(=O)O)c(=O)c2cc(F)c(N3CCNCC3)cc21 [norfloxacin] | resistant |  |
| CC(=O)OCC1=C(C(=O)O)N2C(=O)[C@@H](NC(=O)Cc3cccs3)[C@H]2SC1 [cephalothin] | resistant |  |
| CCn1cc(C(=O)O)c(=O)c2ccc(C)nc21 [nalidixic acid] | resistant |  |
| CC1COc2c(N3CCN(C)CC3)c(F)cc3c(=O)c(C(=O)O)cn1c23 (stereo not drawn) [ofloxacin] | resistant |  |
| KKFATIAKKFINYLW-NH2 [Peptide Q4-15a] |  | MHC (minimal hemolysis concentration) [2]: 16 µg/mL; MIC [3]: 4 µg/mL |
| [H]/N=C(/N)N[C@H]1[C@H](O)[C@@H](O)[C@H](O[C@@H]2O[C@@H](C)[C@](O)(C=O)[C@H]2O[C@@H]2O[C@@H](CO)[C@H](O)[C@@H](O)[C@@H]2NC)[C@@H](N/C(N)=N\[H])[C@@H]1O [streptomycin] | resistant |  |
| C=CC1=C(C(=O)O)N2C(=O)[C@@H](NC(=O)/C(=N\OCC(=O)O)c3csc(N)n3)[C@H]2SC1 [cefixime] | resistant |  |
| CCN1CCN(c2cc3c(cc2F)c(=O)c(C(=O)O)cn3C2CC2)CC1 [enrofloxacin] | resistant |  |
| CC1CCc2cc(F)cc3c(=O)c(C(=O)O)cn1c23 (stereo not drawn) [flumequine] | resistant |  |
| CCN1CCN(C(=O)N[C@@H](C(=O)N[C@@H]2C(=O)N3[C@@H]2SC(C)(C)[C@@H]3C(=O)O)c2ccccc2)C(=O)C1=O [piperacillin] | resistant |  |
| CN(C)c1ccc(O)c2c1C[C@H]1C[C@H]3[C@H](N(C)C)C(O)=C(C(N)=O)C(=O)[C@@]3(O)C(O)=C1C2=O [minocycline] | resistant |  |
